Molecular target: T1, thioredoxin glutathione reductase (TGR) (Schistosoma mansoni, UniProt Q962Y6)
T1 sequence (Q962Y6 1-598): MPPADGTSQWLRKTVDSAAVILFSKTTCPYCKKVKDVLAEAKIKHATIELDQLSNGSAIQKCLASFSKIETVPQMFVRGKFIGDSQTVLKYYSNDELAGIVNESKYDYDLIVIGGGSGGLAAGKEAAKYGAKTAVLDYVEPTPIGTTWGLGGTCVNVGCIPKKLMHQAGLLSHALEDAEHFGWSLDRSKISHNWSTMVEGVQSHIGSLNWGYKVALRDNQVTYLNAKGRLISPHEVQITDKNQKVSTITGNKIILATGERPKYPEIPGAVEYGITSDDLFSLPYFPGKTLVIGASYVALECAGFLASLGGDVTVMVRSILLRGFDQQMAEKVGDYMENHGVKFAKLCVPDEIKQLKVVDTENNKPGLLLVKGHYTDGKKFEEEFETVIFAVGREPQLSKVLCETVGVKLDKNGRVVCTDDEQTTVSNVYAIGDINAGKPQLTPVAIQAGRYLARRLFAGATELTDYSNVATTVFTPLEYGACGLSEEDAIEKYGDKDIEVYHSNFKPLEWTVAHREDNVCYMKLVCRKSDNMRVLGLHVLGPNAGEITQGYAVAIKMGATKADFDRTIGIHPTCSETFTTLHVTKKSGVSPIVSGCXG
Type: biochemical

With `N#Cc1c(-c2ccccc2)no[n+]1[O-]` [furoxan, 4-phenyl-3-furoxancarbonitrile] the IC50 was 4 to 7.9 µM.

From PMC2669305 (Assay and drug development technologies, 2008)
